In ChEMBL document CHEMBL3585251, “Tetracycline analogues with a selective inhibitory effect on HIF-1” (Medchemcomm, 2014):
Active and inactive are the calls of the source. No cut-off for these calls is given here.

Columns and labels:
U-251 [1] = experiment: Effect on basal transcription in human U251 cells co-transfected with pGL3 incubated for 24 hrs by luciferase reporter gene assay; format: ADME, cell-based; settings: U-251, 24 h
[2] = target: T1, Hypoxia-inducible factor 1-alpha (Homo sapiens, UniProt Q16665); experiment: Inhibition of human HIF1alpha-mediated transcription expressed in human U251 cells co-transfected with pGL2-TK-HRE incubated for 24 hrs by luciferase reporter gene assay; format: cell-based, U-251
Target sequence in this assay (Q16665 whole entry): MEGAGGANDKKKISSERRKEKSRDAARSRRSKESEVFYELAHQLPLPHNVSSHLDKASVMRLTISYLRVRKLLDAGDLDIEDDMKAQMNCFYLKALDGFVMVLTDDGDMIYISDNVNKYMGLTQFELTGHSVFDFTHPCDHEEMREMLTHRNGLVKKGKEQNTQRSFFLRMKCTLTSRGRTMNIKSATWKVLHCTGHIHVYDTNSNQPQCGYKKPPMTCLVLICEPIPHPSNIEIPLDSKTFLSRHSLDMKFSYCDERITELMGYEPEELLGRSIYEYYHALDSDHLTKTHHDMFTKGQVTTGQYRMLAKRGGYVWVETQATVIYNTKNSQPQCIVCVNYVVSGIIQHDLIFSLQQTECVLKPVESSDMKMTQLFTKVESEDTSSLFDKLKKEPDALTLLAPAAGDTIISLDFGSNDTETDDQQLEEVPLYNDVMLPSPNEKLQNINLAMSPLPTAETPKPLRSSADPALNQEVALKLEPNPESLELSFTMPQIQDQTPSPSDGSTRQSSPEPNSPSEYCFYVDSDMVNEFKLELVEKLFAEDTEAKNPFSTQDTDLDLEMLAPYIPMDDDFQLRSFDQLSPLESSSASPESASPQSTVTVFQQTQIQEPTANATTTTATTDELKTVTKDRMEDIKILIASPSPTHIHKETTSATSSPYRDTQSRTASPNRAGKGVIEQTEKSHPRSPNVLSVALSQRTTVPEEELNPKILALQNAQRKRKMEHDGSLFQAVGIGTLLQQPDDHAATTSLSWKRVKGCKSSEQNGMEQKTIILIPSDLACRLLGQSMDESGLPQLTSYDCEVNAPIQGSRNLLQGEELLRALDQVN

[3] = Selectivity index, ratio of EC50 for effect on basal transcription in human U251 cells co-transfected with pGL3 to EC50 for Inhibition of human HIF1alpha expressed in human U251 cells co-transfected with pGL2-TK-HRE; set-up: species or system U-251
U-251 [4] = experiment: Inhibition of human HIF1alpha mRNA expression in wild type human U251 cells at 10 uM incubated for 8 hrs; format: functional; settings: U-251, 8 h
U-251 [5] = experiment: Inhibition of human HIF1alpha mRNA expression in wild type human U251 cells at 10 uM incubated for 16 hrs; format: functional; settings: U-251, 16 h
U-251 [6] = experiment: Inhibition of human HIF1alpha mRNA expression in wild type human U251 cells at 1 uM incubated for 8 hrs under hypoxic condition (reference value: 0.7 no unit); format: functional
U-251 [7] = experiment: Inhibition of human HIF1alpha mRNA expression in wild type human U251 cells at 10 uM incubated for 8 hrs under hypoxic condition (reference value: 0.7 no unit); format: functional
U-251 [8] = experiment: Inhibition of human HIF1alpha mRNA expression in wild type human U251 cells at 1 uM incubated for 16 hrs under hypoxic condition (reference value: 0.9 no unit); format: functional
U-251 [9] = experiment: Inhibition of human HIF1alpha mRNA expression in wild type human U251 cells at 10 uM incubated for 16 hrs under hypoxic condition (reference value: 0.9 no unit); format: functional
U-251 [10] = experiment: Inhibition of human HIF1alpha mRNA expression in wild type human U251 cells at 1 and 10 uM incubated for 8 and 16 hrs under normoxic condition; format: functional, cell-based
U-251 [11] = experiment: Effect on basal transcription in wild type human U251 cells at 1 and 10 uM incubated for 8 and 16 hrs under normoxic condition; format: ADME, cell-based; settings: u-251, 16 h
[12] = target: T1, Hypoxia-inducible factor 1-alpha; experiment: Inhibition of hypoxia-induced HIF1alpha protein accumulation in wild type human U251 cells at 1 and 10 uM incubated for 8 hrs under hypoxic condition; format: cell-based; settings: U-251
Target sequence in this assay (Q16665 whole entry, looked up): as the sequence (Q16665 whole entry) above

[13] = target: T1, Hypoxia-inducible factor 1-alpha; experiment: Inhibition of HIF1alpha protein accumulation in wild type human U251 cells at 10 uM incubated for 16 hrs under normoxic condition; format: cell-based; settings: U-251
Target sequence in this assay (Q16665 whole entry, looked up): as the sequence (Q16665 whole entry) above

U-251 [14] = experiment: Inhibition of hypoxia-induced HIF1beta protein accumulation in wild type human U251 cells at 1 and 10 uM incubated for 8 hrs under hypoxic condition; format: cell-based
U-251 [15] = experiment: Inhibition of hypoxia-induced HIF1beta protein accumulation in wild type human U251 cells at 1 and 10 uM incubated for 8 hrs under normoxic condition; format: cell-based
[16] = target: T1, Hypoxia-inducible factor 1-alpha; experiment: Inhibition of human HIF1alpha-mediated VEGF mRNA expression in wild type human U251 cells at 1 uM incubated for 16 hrs under hypoxic condition; format: cell-based; settings: U-251
Target sequence in this assay (Q16665 whole entry, looked up): as the sequence (Q16665 whole entry) above

[17] = target: T1, Hypoxia-inducible factor 1-alpha; experiment: Inhibition of human HIF1alpha-mediated VEGF mRNA expression in wild type human U251 cells at 10 uM incubated for 16 hrs under hypoxic condition; format: cell-based; settings: U-251
Target sequence in this assay (Q16665 whole entry, looked up): as the sequence (Q16665 whole entry) above

[18] = target: T1, Hypoxia-inducible factor 1-alpha; experiment: Inhibition of human HIF1alpha-mediated VEGF mRNA expression in wild type human U251 cells at 1 uM incubated for 8 hrs under hypoxic condition (reference value: 3.5 No unit); format: cell-based; settings: U-251
Target sequence in this assay (Q16665 whole entry, looked up): as the sequence (Q16665 whole entry) above

[19] = target: T1, Hypoxia-inducible factor 1-alpha; experiment: Inhibition of human HIF1alpha-mediated VEGF mRNA expression in wild type human U251 cells at 10 uM incubated for 8 hrs under hypoxic condition (reference value: 3.5 No unit); format: cell-based; settings: U-251
Target sequence in this assay (Q16665 whole entry, looked up): as the sequence (Q16665 whole entry) above

[20] = target: T1, Hypoxia-inducible factor 1-alpha; experiment: Inhibition of human HIF1alpha-mediated VEGF mRNA expression in wild type human U251 cells at 1 uM incubated for 16 hrs under normoxic condition (Rvb =2.9 No unit); format: cell-based; settings: U-251
[21] = target: T1, Hypoxia-inducible factor 1-alpha; experiment: Inhibition of human HIF1alpha-mediated VEGF mRNA expression in wild type human U251 cells at 10 uM incubated for 16 hrs under normoxic condition (Rvb =2.9 No unit); format: cell-based; settings: U-251

In the case of `CC[C@@]1(O)C(=O)OCc2c1cc1n(c2=O)Cc2cc3c(CN(C)C)c(O)ccc3nc2-1` [TOPOTECAN], the EC50 (U-251 [1]) is reported as over 20 µM.
For `C[C@@]12C(=O)c3cccc(O)c3C(=O)[C@@H]1C[C@@H]1C(=CC[C@@H]3C(=O)NC(=O)[C@@H]31)[C@@H]2c1ccc(C(F)(F)F)cc1` (racemic), the EC50 [2] was 6.7 µM, the EC50 (U-251 [1]) was over 20 µM and the “Ratio EC50” value [3] was over 3.
For `C[C@@]12C[C@@H]3C(=CC[C@@H]4C(=O)N(CCC(=O)O)C(=O)[C@@H]43)[C@H](c3ccc(F)cc3)[C@@H]1C(=O)c1ccccc1C2=O` (racemic), the EC50 [2] was 4.1 µM, the EC50 (U-251 [1]) was 8.7 µM and the “Ratio EC50” value [3] was 2.15.
With `COc1cccc2c1C(=O)[C@@H]1C[C@@H]3C(=CC[C@@H]4C(=O)N(CCC(=O)O)C(=O)[C@@H]43)[C@H](c3ccc(Br)cc3)[C@]1(C)C2=O` (racemic) the EC50 [2] was 15.5 µM, the EC50 (U-251 [1]) was over 20 µM and the “Ratio EC50” value [3] was over 1.4.
In the case of `C[C@@]12C[C@@H]3C(=CC[C@@H]4C(=O)NC(=O)[C@@H]43)[C@H](c3ccc(C(F)(F)F)cc3)[C@]1(C)C(=O)c1ccccc1C2=O` (racemic), the EC50 [2] is reported as 7.8 µM, the EC50 (U-251 [1]) is reported as over 20 µM and the “Ratio EC50” value [3] is reported as over 2.7.
With `C[C@@]12C[C@@H]3C(=CC[C@@H]4C(=O)NC(=O)[C@@H]43)[C@H](c3ccc(C(F)(F)F)cc3)[C@@H]1C(=O)c1ccccc1C2=O` (racemic) the EC50 [2] was 2.3 µM, the EC50 (U-251 [1]) was over 20 µM and the “Ratio EC50” value [3] was over 8.6. For the same molecule, the inhibition at 10 µM (U-251 [4]) was 29%, the inhibition at 10 µM (U-251 [5]) was 45% and the “fold change (FC)” value (U-251 [6]) was 0.8. The “fold change (FC)” value (U-251 [7]) was 0.5, the “fold change (FC)” value (U-251 [8]) was 0.7 and the “fold change (FC)” value (U-251 [9]) was 0.21. For the same molecule, the inhibition (U-251 [10]) was “Active”, the Activity (U-251 [11]) was “Non-toxic” and the inhibition [12] was “Dose-dependent effect”. For the same molecule, the inhibition [13] was “Active”, the inhibition (U-251 [14]) was “inactive” and the inhibition (U-251 [15]) was “inactive”. The inhibition [16] was 35%, the inhibition [17] was 59% and the fold change (FC) [18] was 3. It also gave a fold change (FC) [19] of 1.6, a fold change (FC) [20] of 1.9 and a fold change (FC) [21] of 1.2.
For `COc1cccc2c1C(=O)[C@@H]1C[C@@H]3C(=CC[C@@H]4C(=O)NC(=O)[C@@H]43)[C@H](c3ccc(C(F)(F)F)cc3)[C@]1(C)C2=O` (racemic), the EC50 [2] was 6.7 µM, the EC50 (U-251 [1]) was over 20 µM and the “Ratio EC50” value [3] was over 3.
For `C[C@@]12C[C@@H]3C(=CC[C@@H]4C(=O)N(CCC(=O)O)C(=O)[C@@H]43)[C@H](c3ccc(Br)cc3)[C@@H]1C(=O)c1ccccc1C2=O` (racemic), the EC50 [2] was 1.4 µM, the EC50 (U-251 [1]) was over 20 µM and the “Ratio EC50” value [3] was over 14. The inhibition at 10 µM (U-251 [4]) was 43%, the inhibition at 10 µM (U-251 [5]) was 78% and the “fold change (FC)” value (U-251 [6]) was 0.8. For the same molecule, the “fold change (FC)” value (U-251 [7]) was 0.4, the “fold change (FC)” value (U-251 [8]) was 0.7 and the “fold change (FC)” value (U-251 [9]) was 0.2. The inhibition (U-251 [10]) was “Active”, the Activity (U-251 [11]) was “Non-toxic” and the inhibition [12] was “Dose-dependent effect”. For the same molecule, the inhibition [13] was “Active”, the inhibition (U-251 [14]) was “inactive” and the inhibition (U-251 [15]) was “inactive”. It also gave an inhibition [16] of 38%, an inhibition [17] of 69% and a fold change (FC) [18] of 2.7. It also gave a fold change (FC) [19] of 1.7, a fold change (FC) [20] of 1.6 and a fold change (FC) [21] of 0.9.
